Test results: PMC5587909, “Inhibition of the ATP Synthase Eliminates the Intrinsic Resistance of Staphylococcus aureus towards Polymyxins” (mBio, 2017)
In brackets after ≈: the same amount, converted by molar mass.

Tests used:
Test in all cases: microbe, parasite or virus in culture
[1] = tested on: S. aureus JE2 vraG transposon mutant (SAUSA300_0648)
From the text: (§1) Staphylococcus aureus is intrinsically resistant to the clinically approved cationic antimicrobial peptides polymyxin B (PMB) and colistin ([1], [16]). […] The MIC for PMB was subsequently determined using Etests for the identified mutants.
(§2) The strains used in this study include S. aureus strain JE2 (plasmid-cured derivative of USA300 LAC) and all derivative strains within the Nebraska Transposon Mutant Library (NTML), consisting of 1,920 unique transposon mutants with inactivation of nonessential genes ([15]). The bursa aurealis transposon used to create the collection contains the resistance cassette ermB, which confers resistance to erythromycin ([15]). Additionally we used S. aureus SA113 and two derivatives, SA113 ΔdltA ([9]) and SA113 ΔmprF ([10]). All bacterial strains were cultured at 37°C in tryptic soy broth (TSB) or on tryptic soy agar (TSA), with antimicrobial agents added as indicated. Two methods have been employed to determine MICs to various antimicrobial agents. (i) A 2-fold broth microdilution assay in TSB (100 µl) with an initial inoculum of approximately 5 × 10^5 cells/ml was employed to determine the MICs of polymyxin B sulfate (Sigma), gallidermin (Santa Cruz Biotechnology), nisin (Sigma), bacitracin (Sigma), and LL-37 (Isca Biochemicals). […] The MIC was determined upon incubation at 37°C for 22 h. […]

[2] = tested on: S. aureus JE2 (wild type); settings: 22 h; for MIC: Staphylococcus aureus, read-out: MIC, WT
From the text: as §1, §2

[3] = tested on: S. aureus JE2 graR transposon mutant (SAUSA300_0645)
From the text: as §1, §2

[4] = tested on: S. aureus JE2 vraF transposon mutant (SAUSA300_0647)
From the text: as §1, §2

[5] = tested on: S. aureus JE2 atpA transposon mutant (SAUSA300_2060)
From the text: as §1, §2

Structure (SMILES): CNC(C)C1CCC(N)C(OC2C(N)CC(N)C(OC3OCC(C)(O)C(NC)C3O)C2O)O1 (stereo not shown) [Gentamicin, gentamicin]
- MIC ([1]; Staphylococcus aureus, 22 h, read-out: MIC, vraG): 0.25 µg/mL (≈ 0.523 µM)
- fold reduction in MIC / increased sensitivity relative to WT ([1]; {}): 3-6 fold
- MIC [2]: 1.5 µg/mL (≈ 3.14 µM)
- MIC ([3]; Staphylococcus aureus, 22 h, read-out: MIC, graR): 0.5 µg/mL (≈ 1.05 µM)
- fold reduction in MIC / increased sensitivity relative to WT ([3]; {}): 3-6 fold
- MIC ([4]; Staphylococcus aureus, 22 h, read-out: MIC, vraF): 0.38 µg/mL (≈ 0.796 µM)
- fold reduction in MIC / increased sensitivity relative to WT ([4]; {}): 3-6 fold
- MIC ([5]; Staphylococcus aureus, 22 h, read-out: MIC, atpA): 0.094 µg/mL (≈ 0.197 µM)
- fold reduction in MIC / increased sensitivity relative to WT ([5]; {}): 16 fold

Structure (SMILES): CC(=O)NC[C@H]1CN(c2ccc(N3CCOCC3)c(F)c2)C(=O)O1 [Linezolid, linezolid]
- MIC [2]: 2 µg/mL (≈ 5.93 µM)

Structure (SMILES): Cc1onc(-c2ccccc2)c1C(=O)N[C@@H]1C(=O)N2[C@@H]1SC(C)(C)[C@@H]2C(=O)O [Oxacillin, oxacillin]
- MIC [2]: 0.5 µg/mL (≈ 1.25 µM)

Structure (SMILES): CN[C@H](CC(C)C)C(=O)N[C@H]1C(=O)N[C@@H](CC(N)=O)C(=O)N[C@H]2C(=O)N[C@H]3C(=O)N[C@H](C(=O)N[C@H](C(=O)O)c4cc(O)cc(O)c4-c4cc3ccc4O)[C@H](O)c3ccc(c(Cl)c3)Oc3cc2cc(c3O[C@@H]2O[C@H](CO)[C@@H](O)[C@H](O)[C@H]2O[C@H]2C[C@](C)(N)[C@H](O)[C@H](C)O2)Oc2ccc(cc2Cl)[C@H]1O [Vancomycin, vancomycin]
- MIC, vraG ([1]; conventional antibiotics (Table 3), Etest on TSA, 37°C, 22 h, vraG mutant): 1 µg/mL (≈ 0.69 µM)
- MIC, WT ([2]; conventional antibiotics (Table 3), Etest on TSA, 37°C, WT JE2): 1.5 µg/mL (≈ 1.04 µM)
- MIC, graR ([3]; conventional antibiotics (Table 3), Etest on TSA, 37°C, 22 h, graR mutant): 1 µg/mL (≈ 0.69 µM)
- MIC, vraF ([4]; conventional antibiotics (Table 3), Etest on TSA, 37°C, 22 h, vraF mutant): 0.75 µg/mL (≈ 0.518 µM)
- MIC, atpA ([5]; conventional antibiotics (Table 3), Etest on TSA, 37°C, 22 h, atpA mutant): 1.500 µg/mL (≈ 1.04 µM)
